Test results: patent US10316035B2, “Triazolopyridine inhibitors of myeloperoxidase” (BRISTOL-MYERS SQUIBB COMPANY, priority 2015, dated 2019)
pIC50: −log10 of the molar value.

What follows are compounds tested against T1, myeloperoxidase (MPO) (Homo sapiens, UniProt P05164) (assay: MPO peroxidation assay (Amplex Red assay)). Details: not given.
T1 sequence (P05164 49-745): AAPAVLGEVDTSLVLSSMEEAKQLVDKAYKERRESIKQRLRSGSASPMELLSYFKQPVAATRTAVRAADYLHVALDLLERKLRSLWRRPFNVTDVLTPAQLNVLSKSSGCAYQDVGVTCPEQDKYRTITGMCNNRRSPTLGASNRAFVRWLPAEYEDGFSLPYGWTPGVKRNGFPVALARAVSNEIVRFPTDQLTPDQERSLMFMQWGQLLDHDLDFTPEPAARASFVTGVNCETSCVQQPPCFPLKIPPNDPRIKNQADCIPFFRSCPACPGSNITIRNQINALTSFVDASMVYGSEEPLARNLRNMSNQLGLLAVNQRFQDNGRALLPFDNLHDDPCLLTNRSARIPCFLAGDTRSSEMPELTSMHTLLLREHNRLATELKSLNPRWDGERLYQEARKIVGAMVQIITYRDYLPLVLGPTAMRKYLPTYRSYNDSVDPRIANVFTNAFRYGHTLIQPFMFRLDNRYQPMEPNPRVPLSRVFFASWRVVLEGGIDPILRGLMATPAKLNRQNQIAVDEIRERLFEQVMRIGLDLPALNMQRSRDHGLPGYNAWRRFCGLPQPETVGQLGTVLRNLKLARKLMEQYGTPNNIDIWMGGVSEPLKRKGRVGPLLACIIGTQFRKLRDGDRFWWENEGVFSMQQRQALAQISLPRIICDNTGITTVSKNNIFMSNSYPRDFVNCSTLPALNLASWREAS
Format: biochemical
Method: MPO Peroxidation Assay (Amplex Red Assay)
MPO peroxidation activity was measured in 100 mM KPi (pH 7.4) by utilizing the non-fluorescent reagent Amplex Red (Invitrogen catalog # A12222) which can be oxidized to the highly fluorescent resorufin. Amplex Red is oxidized by the peroxidase action of MPO to resorufin. Reactions were carried out in 50 μL total volume by adding a 25 μL mixture of 200 pM myeloperoxidase and 40 nM H2O2(Sigma #349887) to 100 nL inhibitor in 100% DMSO in a 384 well Perkin Elmer Optiplate. Enzyme and compound were preincubated for ten minutes at room temperature.
After the ten minute preincubation, 25 μL of an Amplex Red mixture containing 200 μM Amplex Red and 10 mM H2O2 was added to the plate. Kinetic determinations were carried out immediately on a Perkin Elmer Envision (15 minute kinetic read, Ex: 535 nm, Em: 590 nm).
IC50 values were calculated by determining the slope of the linear portion of the kinetic trace ([…]), and using that calculated slope to determine % inhibition occurring at each concentration of inhibitor using the following equation:
[formula] where A=minimal Y value (activity level of inhibited sample), B=maximal Y value (activity level of uninhibited sample), C=Log IC50, D=Hill Slope, x=concentration of inhibitor. MPO Chlorination Assay (APF Assay)

SMILES | pIC50
Nc1cc(OCc2cccc(-c3cccc(F)c3)c2)c2nn[nH]c2n1 [Example 91, 7-((3′-Fluorobiphenyl-3-yl)methoxy)-3H-[1,2,3]triazolo[4,5-b]pyridin-5-amine] | 7.00 to 9.00
Nc1cc(OCc2cccc(-c3ccccc3F)c2)c2nn[nH]c2n1 [Example 96, 7-((2′-Fluorobiphenyl-3-yl)methoxy)-3H-[1,2,3]triazolo[4,5-b]pyridin-5-amine] | 7.00 to 9.00

Same assay, conditions: MPO peroxidation, potency range class; read-out: Amplex Red IC50

SMILES | pIC50
Nc1cc(OCc2cc(Cl)ccc2OCC2CCCO2)c2nn[nH]c2n1 (stereo not drawn) [Example 89, 7-(5-Chloro-2-((tetrahydrofuran-2-yl)methoxy)benzyloxy)-3H-[1,2,3]triazolo[4,5-b]pyridin-5-amine] | 7.00 to 9.00
Nc1cc(OCC2CCC(c3ccccc3)CC2)c2nn[nH]c2n1 (stereo not drawn) [Example 90, 7-((4-Phenylcyclohexyl)methoxy)-3H-[1,2,3]triazolo[4,5-b]pyridin-5-amine] | 7.00 to 9.00
N#Cc1cccc(-c2cccc(COc3cc(N)nc4[nH]nnc34)c2)c1 [Example 92, 3′-((5-Amino-3H-[1,2,3]triazolo[4,5-b]pyridin-7-yloxy)methyl)biphenyl-3-carbonitrile] | 7.00 to 9.00
Nc1cc(OCc2cccc(-c3ccccc3Cl)c2)c2nn[nH]c2n1 [Example 93, 7-((2′-Chlorobiphenyl-3-yl)methoxy)-3H-[1,2,3]triazolo[4,5-b]pyridin-5-amine] | 7.00 to 9.00
Nc1cc(OCc2cccc(-c3ccc(F)cc3)c2)c2nn[nH]c2n1 [Example 95, 7-((4′-Fluorobiphenyl-3-yl)methoxy)-3H-[1,2,3]triazolo[4,5-b]pyridin-5-amine] | 7.00 to 9.00
Nc1cc(OCc2cccc(-c3ccc(Cl)cc3)c2)c2nn[nH]c2n1 [Example 97, 7-((4′-Chlorobiphenyl-3-yl)methoxy)-3H-[1,2,3]triazolo[4,5-b]pyridin-5-amine] | 6.00 to 7.00
Nc1cc(OCc2cccc(-c3ccc(-c4ccn[nH]4)cc3)c2)c2nn[nH]c2n1 [Example 98, 7-((4′-(1H-Pyrazol-5-yl)biphenyl-3-yl)methoxy)-3H-[1,2,3]triazolo[4,5-b]pyridin-5-amine] | 7.00 to 9.00
CN1CCN(c2ccc(-c3cccc(COc4cc(N)nc5[nH]nnc45)c3)cc2)CC1 [Example 99, 7-((4′-(4-Methylpiperazin-1-yl)biphenyl-3-yl)methoxy)-3H-[1,2,3]triazolo[4,5-b]pyridin-5-amine] | 6.00 to 7.00
Nc1cc(OCc2cccc(-c3ccc(NC(=O)c4ccccc4)cc3)c2)c2nn[nH]c2n1 [Example 100, N-(3′-((5-Amino-3H-[1,2,3]triazolo[4,5-b]pyridin-7-yloxy)methyl)biphenyl-4-yl)benzamide] | 7.00 to 9.00
N#Cc1ccc(-c2cccc(COc3cc(N)nc4[nH]nnc34)c2)cc1 [Example 101, 3′-((5-Amino-3H-[1,2,3]triazolo[4,5-b]pyridin-7-yloxy)methyl)biphenyl-4-carbonitrile] | 7.00 to 9.00
Nc1cc(OCc2cccc(-c3ccc(-c4ccccc4)cc3)c2)c2nn[nH]c2n1 [Example 102, 7-((4′-Phenylbiphenyl-3-yl)methoxy)-3H-[1,2,3]triazolo[4,5-b]pyridin-5-amine] | 6.00 to 7.00
Nc1cc(OCc2cccc(-c3cccnc3)c2)c2nn[nH]c2n1 [Example 103, 7-(3-(Pyridin-3-yl)benzyloxy)-3H-[1,2,3]triazolo[4,5-b]pyridin-5-amine] | 7.00 to 9.00
Nc1cc(OCc2cccc(-c3ccc(C(=O)Nc4ccccc4)cc3)c2)c2nn[nH]c2n1 [Example 104, 3′-((5-Amino-3H-[1,2,3]triazolo[4,5-b]pyridin-7-yloxy)methyl)-N-phenylbiphenyl-4-carboxamide] | 6.00 to 7.00
COc1ccc(-c2cccc(COc3cc(N)nc4[nH]nnc34)c2)cc1F [Example 105, 7-((3′-Fluoro-4′-methoxybiphenyl-3-yl)methoxy)-3H-[1,2,3]triazolo[4,5-b]pyridin-5-amine] | 7.00 to 9.00
Nc1cc(OCc2ccc(Br)cc2)c2nn[nH]c2n1 [Example 106, 7-(4-Bromobenzyloxy)-3H-[1,2,3]triazolo[4,5-b]pyridin-5-amine] | 7.00 to 9.00
CCN(C)C(=O)c1ccc(-c2ccc(COc3cc(N)nc4[nH]nnc34)cc2)cc1F [Example 107, 4′-((5-Amino-3H-[1,2,3]triazolo[4,5-b]pyridin-7-yloxy)methyl)-N-ethyl-3-fluoro-N-methylbiphenyl-4-carboxamide] | 6.00 to 7.00
COc1ccc(-c2ccc(COc3cc(N)nc4[nH]nnc34)cc2)cc1F [Example 108, 7-((3′-Fluoro-4′-methoxybiphenyl-4-yl)methoxy)-3H-[1,2,3]triazolo[4,5-b]pyridin-5-amine] | 6.00 to 7.00
Nc1cc(OCc2ccc(-c3ccccc3Cl)cc2)c2nn[nH]c2n1 [Example 109, 7-((2′-Chlorobiphenyl-4-yl)methoxy)-3H-[1,2,3]triazolo[4,5-b]pyridin-5-amine] | 6.00 to 7.00
N#Cc1cccc(-c2ccc(COc3cc(N)nc4[nH]nnc34)cc2)c1 [Example 110, 4′-((5-Amino-3H-[1,2,3]triazolo[4,5-b]pyridin-7-yloxy)methyl)biphenyl-3-carbonitrile] | 5.00 to 6.00
Nc1cc(OCc2ccc(-c3cccc(Cl)c3)cc2)c2nn[nH]c2n1 [Example 111, 7-((3′-Chlorobiphenyl-4-yl)methoxy)-3H-[1,2,3]triazolo[4,5-b]pyridin-5-amine] | 5.00 to 6.00
COc1cccc(-c2ccc(COc3cc(N)nc4[nH]nnc34)cc2)c1 [Example 112, 7-((3′-Methoxybiphenyl-4-yl)methoxy)-3H-[1,2,3]triazolo[4,5-b]pyridin-5-amine] | 6.00 to 7.00
COc1cccc(-c2cccc(COc3cc(N)nc4[nH]nnc34)c2)c1 [Example 113, 7-((3′-Methoxybiphenyl-3-yl)methoxy)-3H-[1,2,3]triazolo[4,5-b]pyridin-5-amine] | 7.00 to 9.00
Nc1cc(OCc2ccc(-c3ccccc3F)cc2)c2nn[nH]c2n1 [Example 114, 7-((2′-Fluorobiphenyl-4-yl)methoxy)-3H-[1,2,3]triazolo[4,5-b]pyridin-5-amine] | 6.00 to 7.00
COc1c(F)cccc1-c1cccc(COc2cc(N)nc3[nH]nnc23)c1 [Example 115, 7-((3′-Fluoro-2′-methoxybiphenyl-3-yl)methoxy)-3H-[1,2,3]triazolo[4,5-b]pyridin-5-amine] | 7.00 to 9.00
CCN(C)C(=O)c1ccc(-c2cccc(COc3cc(N)nc4[nH]nnc34)c2)cc1F [Example 116, 3′-((5-Amino-3H-[1,2,3]triazolo[4,5-b]pyridin-7-yloxy)methyl)-N-ethyl-3-fluoro-N-methylbiphenyl-4-carboxamide] | 6.00 to 7.00
COc1c(F)cc(F)cc1-c1ccc(COc2cc(N)nc3[nH]nnc23)cc1 [Example 117, 7-((3′,5′-Difluoro-2′-methoxybiphenyl-4-yl)methoxy)-3H-[1,2,3]triazolo[4,5-b]pyridin-5-amine] | 6.00 to 7.00
COc1cccc(Cl)c1-c1ccc(COc2cc(N)nc3[nH]nnc23)cc1 [Example 118, 7-((2′-Chloro-6′-methoxybiphenyl-4-yl)methoxy)-3H-[1,2,3]triazolo[4,5-b]pyridin-5-amine] | 7.00 to 9.00
Nc1cc(OCc2ccc(-c3ccc(OC(F)(F)F)cc3)cc2)c2nn[nH]c2n1 [Example 119, 7-((4′-(Trifluoromethoxy)biphenyl-4-yl)methoxy)-3H-[1,2,3]triazolo[4,5-b]pyridin-5-amine] | 6.00 to 7.00
